± gives the expanded uncertainty stated by the source.
What was measured:
[1] = 298.15 K; 101.33 kPa; Liquid; Vibrating tube method
[2] = refractive index (Na D-line) (dimensionless); settings: 298.15 K; 101.33 kPa; Liquid; Standard Abbe refractometry

Row | Compound | mass density [1] | refractive index [2]
1 | COS(=O)(=O)[O-].Cn1cc[n+](C)c1 [1,3-dimethylimidazolium methylsulfate] | 1327.3 ± 3.8 kg/m3 | 1.48276 ± 0.00069
2 | CCCCCCCCCCCC [dodecane] | 745.2 ± 2.1 kg/m3 | 1.41992 ± 0.0004
3 | CC(C)O [propan-2-ol] | 780.9 ± 2.1 kg/m3 | 1.37499 ± 0.00035
4 | CCO [ethanol] | 785.1 ± 2.1 kg/m3 | 1.35932 ± 0.00035
5 | CCn1cc[n+](C)c1.COS(=O)(=O)[O-] [1-ethyl-3-methylimidazolium methylsulfate] | 1277.4 ± 2.6 kg/m3 | 1.479 ± 0.0005
6 | CCOC(C)=O [ethyl acetate] | 894.5 ± 2.1 kg/m3 | 1.36975 ± 0.00035
7 | CCCCn1cc[n+](C)c1.COS(=O)(=O)[O-] [1-butyl-3-methylimidazolium methyl sulfate] | 1212.3 ± 2.5 kg/m3 | 1.47948 ± 0.00053

— the NIST ThermoML archive (doi:10.1016/j.jct.2014.09.009)
